Results on one substance are retold here after patent publication US12629446B2, “Vascular embolic system” (3-D Matrix, Ltd., priority 2012, dated 2026).

Details of the data set: species or system Yorkshire cross swine. The conditions noted are these: in vivo. Here is the method: PuraMatrix™, a peptide solution comprising Ac-RADARADARADARADA-NH2 (Ac-Arg-Ala-Asp-Ala-Arg-Ala-Asp-Ala-Arg-Ala-Asp-Ala-Arg-Ala-Asp-Ala-NH2) (SEQ ID NO: 58) in water was used as an embolic agent in a porcine model through angiography, gross necropsy assessment, and histopathology assessment. One female Yorkshire cross swine was tested. The weight of the swine at the time of testing was 46.5 kg. Feed and water were provided per standard operating procedures. There were no contaminants in the food or water that were expected to interfere with the conduct or results of the study. The swine was acquired from a test facility approved animal supplier. The Swine participated in an incoming physical exam, and after a period of acclimation was again examined. The swine was fasted a minimum of 12 hours prior to the procedures. The animals were sedated and anesthetized by an intramuscular or subcutaneous injection of Telazol (2-10 mg/kg) and Xylazine (0.5=5.0 mg/kg). Propofol (to effect) was given to aid in sedation. An endotracheal tube was used to ensure proper ventilation and the animals were maintained under general anesthesia with inhalant isofluorante (0.1 to 5.0%). Heparin (50-300 units/kg, IV) was administered throughout the procedure.
On the day of testing, the swine was 2 months, 25 days old. The swine was sedated and prepared for surgery. […]

As for Ac-RADARADARADARADA-NH2 [PuraMatrix™], the “adverse events throughout the testing” value is “no adverse events”.
